Source: patent US11510896B2, “Antiviral compositions for the treatment of infections linked to coronaviruses” (priority 2016, dated 2022)

Legend:
[1] = system: MERS-CoV strain France-UAE/1612/2013; assay: microbe, parasite or virus in culture; type: cell-based, MERS-CoV coronavirus; details: for IC50: Middle East respiratory syndrome-related coronavirus, Vero C1008, 24 h, read-out: IC50 (dose necessary to obtain a 50% viral production inhibition)
[2] = system: horses; details: horses versus ruminants; cited from earlier work

| SMILES | reduction of the infectious titres with respect to the control ([1]; 12.5 μM) [%] | IC50 [1] [nM] | reduction of the infectious titres with respect to the control ([1]; 6 μM) [%] | LD50 in horses, times less than in ruminants [2] [times] |
| --- | --- | --- | --- | --- |
| COc1ccc2cc3[n+](cc2c1OC)CCc1cc2c(cc1-3)OCO2 [berberine, Berberine] | 78.4 | 3800 |  |  |
| CC[C@@]1([C@@H]2O[C@@H]([C@H]3O[C@@](O)(CO)[C@H](C)C[C@@H]3C)C[C@@H]2C)CC[C@H]([C@]2(C)CC[C@]3(C[C@H](O)[C@@H](C)[C@@H]([C@@H](C)[C@@H](OC)[C@H](C)C(=O)O)O3)O2)O1 [monensin, Monensin] |  | 1250 | 97.8 | 100 |
